Measured values taken from PubChem BioAssay AID248 (DTP/NCI, 2004).
Where “and” joins values, the source holds several entries; their conditions need not be identical. Identical values can stand only once. Toxic doses and inconclusive results are not listed. No stated cut-off is given here; in the data, active means T/C of 150% or more; inactive means T/C below 125%.

Test system: L1210 leukemia ip in BDF1 mice, survival T/C
Assay: NCI In Vivo Anticancer Drug Screen. Data for tumor model L1210 Leukemia (intraperitoneal) in B6D2F1 (BDF1) mice
Details: endpoint: mean survival time, higher = longer survival
Outline: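 Antitumor effect is assessed in tumor-bearing animals. Survival in the compound arm is compared with a vehicle-dosed control arm and expressed as their quotient.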

[1] = dose: 25.0 mg/kg/injection, schedule: Q04DX002 (ip), vehicle: saline with Tween-80
[2] = dose: 100.0 mg/kg/injection, schedule: Q01DX001 (ip), vehicle: saline with Tween-80
[3] = dose: 200.0 mg/kg/injection, schedule: Q01DX001 (ip), vehicle: saline with Tween-80
[4] = dose: 100.0 mg/kg/injection, schedule: Q01DX001 (ip), vehicle: saline
[5] = dose: 200.0 mg/kg/injection, schedule: Q01DX001 (ip), vehicle: saline
[6] = dose: 400.0 mg/kg/injection, schedule: Q01DX001 (ip), vehicle: saline
[7] = dose: 100.0 mg/kg/injection, schedule: Q01DX001 (ip), vehicle: Klucel (hydroxypropylcellulose) (HPC)
[8] = dose: 200.0 mg/kg/injection, schedule: Q01DX001 (ip), vehicle: Klucel (hydroxypropylcellulose) (HPC)
[9] = dose: 400.0 mg/kg/injection, schedule: Q01DX001 (ip), vehicle: Klucel (hydroxypropylcellulose) (HPC)
[10] = dose: 100.0 mg/kg/injection, schedule: Q04DX003 (ip), vehicle: Klucel (hydroxypropylcellulose) (HPC)
[11] = dose: 200.0 mg/kg/injection, schedule: Q04DX003 (ip), vehicle: Klucel (hydroxypropylcellulose) (HPC)
[12] = dose: 400.0 mg/kg/injection, schedule: Q04DX003 (ip), vehicle: Klucel (hydroxypropylcellulose) (HPC)
[13] = dose: 100.0 mg/kg/injection, schedule: Q04DX002 (ip), vehicle: saline with Tween-80
[14] = dose: 100.0 mg/kg/injection, schedule: Q04DX003 (ip), vehicle: saline with Tween-80
[15] = dose: 200.0 mg/kg/injection, schedule: Q04DX003 (ip), vehicle: saline with Tween-80
[16] = dose: 400.0 mg/kg/injection, schedule: Q04DX003 (ip), vehicle: saline with Tween-80
[17] = dose: 100.0 mg/kg/injection, schedule: Q01DX009 (ip), vehicle: saline
[18] = dose: 100.0 mg/kg/injection, schedule: Q04DX003 (ip), vehicle: saline
[19] = dose: 200.0 mg/kg/injection, schedule: Q01DX009 (ip), vehicle: saline
[20] = dose: 200.0 mg/kg/injection, schedule: Q04DX003 (ip), vehicle: saline
[21] = dose: 400.0 mg/kg/injection, schedule: Q01DX009 (ip), vehicle: saline
[22] = dose: 400.0 mg/kg/injection, schedule: Q04DX003 (ip), vehicle: saline

Measured: T/C

C1CNCCNCCCNCCNC1
inactive: dose: 12.5 mg/kg/injection, schedule: Q04DX002 (ip), vehicle: saline with Tween-80 93 % of control | [1] 101 % of control | dose: 50.0 mg/kg/injection, schedule: Q04DX002 (ip), vehicle: saline with Tween-80 90 % of control

C=C1CC(C)(C)C(c2ccccc2)OC1=O (stereo not drawn)
inactive: [2] 107 % of control | [3] 102 % of control

CCCCCCCCCCCCCCNC(=O)Nc1ccc(Cl)c(Cl)c1
inactive: [4] 95 % of control | [5] 92 % of control | [6] 95 % of control

CCOc1ccc(-n2c(=O)c(N=Nc3ccccc3OC)c(O)n(-c3ccccc3OC)c2=S)cc1
inactive: dose: 50.0 mg/kg/injection, schedule: Q01DX001 (ip), vehicle: Klucel (hydroxypropylcellulose) (HPC) 91 % of control | [7] 100 % of control | [8] 87 % of control

O=S(Sc1ccc(N(CCCl)CCCl)cc1)c1ccc(N(CCCl)CCCl)cc1 (stereo not drawn)
inactive: [7] 95 % of control | dose: 100.0 mg/kg/injection, schedule: Q01DX009 (ip), vehicle: gum acacia 86 % of control | [8] 108 % of control | dose: 200.0 mg/kg/injection, schedule: Q01DX009 (ip), vehicle: gum acacia 93 % of control | [9] 93 % of control | dose: 400.0 mg/kg/injection, schedule: Q01DX009 (ip), vehicle: gum acacia 122 % of control

Cc1c(O)ccc2c1CCCC2
inactive: dose: 25.0 mg/kg/injection, schedule: Q04DX003 (ip), vehicle: Klucel (hydroxypropylcellulose) (HPC) 103 % of control | dose: 50.0 mg/kg/injection, schedule: Q04DX003 (ip), vehicle: Klucel (hydroxypropylcellulose) (HPC) 97 % of control | dose: 100.0 mg/kg/injection, schedule: Q01DX009 (ip), vehicle: saline sonified 92 % of control | [10] 92 % of control and 117 % of control | dose: 200.0 mg/kg/injection, schedule: Q01DX009 (ip), vehicle: saline sonified 88 % of control | [11] 107 % of control | dose: 400.0 mg/kg/injection, schedule: Q01DX009 (ip), vehicle: saline sonified 94 % of control | [12] 103 % of control

CCOC(C)=NC1=C(C#N)CP(c2ccccc2)CC1 (stereo not drawn)
inactive: [13] 103 % of control | dose: 200.0 mg/kg/injection, schedule: Q04DX002 (ip), vehicle: saline with Tween-80 95 % of control | dose: 400.0 mg/kg/injection, schedule: Q04DX002 (ip), vehicle: saline with Tween-80 92 % of control

O=C(O)C/C(=C/c1ccc2c(c1)OCO2)C(=O)O
inactive: dose: 100.0 mg/kg/injection, schedule: Q01DX009 (sc), vehicle: olive oil, sesame oil, peanut oil 102 % of control | dose: 100.0 mg/kg/injection, schedule: Q04DX003 (sc), vehicle: olive oil, sesame oil, peanut oil 106 % of control | dose: 200.0 mg/kg/injection, schedule: Q01DX009 (sc), vehicle: olive oil, sesame oil, peanut oil 100 % of control | dose: 200.0 mg/kg/injection, schedule: Q04DX003 (sc), vehicle: olive oil, sesame oil, peanut oil 106 % of control | dose: 400.0 mg/kg/injection, schedule: Q01DX009 (sc), vehicle: olive oil, sesame oil, peanut oil 98 % of control | dose: 400.0 mg/kg/injection, schedule: Q04DX003 (sc), vehicle: olive oil, sesame oil, peanut oil 101 % of control

O=C1SCCC1NP(=O)(OCc1ccccc1)OCc1ccccc1 (stereo not drawn)
inactive: [2] 102 % of control | [3] 102 % of control | dose: 400.0 mg/kg/injection, schedule: Q01DX001 (ip), vehicle: saline with Tween-80 98 % of control

CC(C)=CCCC(C)C/C=N\O (stereo not drawn)
inactive: dose: 100.0 mg/kg/injection, schedule: Q01DX009 (ip), vehicle: saline with Tween-80 101 % of control | [14] 100 % of control | dose: 200.0 mg/kg/injection, schedule: Q01DX009 (ip), vehicle: saline with Tween-80 104 % of control | [15] 103 % of control | [16] 106 % of control

NC(CNO)C(=O)O (stereo not drawn)
inactive: [17] 101 % of control | [18] 103 % of control | [19] 103 % of control | [20] 97 % of control | [21] 110 % of control | [22] 111 % of control

CCNC(=S)N/N=C(/c1ccc(OC)cc1)P(=O)(OCC)OCC
inactive: [10] 104 % of control | [11] 100 % of control | [12] 89 % of control

Cc1cc2c(cc1O)C(C)(C)CCC2(C)C
inactive: [14] 92 % of control | [15] 100 % of control | [16] 97 % of control

O=c1[nH]nc2ccccn12
inactive: [7] 96 % of control | [10] 101 % of control | [8] 102 % of control | [11] 101 % of control | [9] 96 % of control | [12] 95 % of control

CCOc1ccccc1NC(=O)c1cc2ccccc2cc1O
inactive: [17] 102 % of control | [18] 98 % of control | [19] 109 % of control | [20] 102 % of control | [21] 102 % of control | [22] 100 % of control

c1ccc(CCCn2cnc3cnccc32)cc1
inactive: dose: 5.0 mg/kg/injection, schedule: Q01DX001 (ip), vehicle: saline 100 % of control | dose: 10.0 mg/kg/injection, schedule: Q01DX001 (ip), vehicle: saline 103 % of control | dose: 20.0 mg/kg/injection, schedule: Q01DX001 (ip), vehicle: saline 105 % of control | dose: 40.0 mg/kg/injection, schedule: Q01DX001 (ip), vehicle: saline 100 % of control | [4] 96 % of control

Nc1cc(=O)[nH]c(=S)n1-c1ccc(I)cc1
inactive: dose: 50.0 mg/kg/injection, schedule: Q01DX001 (ip), vehicle: saline 100 % of control | [4] 106 % of control | [5] 102 % of control | [6] 100 % of control

CC(=O)n1c(O)c(N=NC(=O)c2ccccc2[N+](=O)[O-])c2ccccc21
inactive: dose: 100.0 mg/kg/injection, schedule: Q01DX009 (ip), vehicle: Klucel (hydroxypropylcellulose) (HPC) 86 % of control | dose: 200.0 mg/kg/injection, schedule: Q01DX009 (ip), vehicle: Klucel (hydroxypropylcellulose) (HPC) 93 % of control | dose: 400.0 mg/kg/injection, schedule: Q01DX009 (ip), vehicle: Klucel (hydroxypropylcellulose) (HPC) 89 % of control

NC(=S)Cc1ccccc1
inactive: [7] 91 % of control | [8] 87 % of control | [9] 100 % of control

CCCCCCCN1CCCC(OC(=O)N(C)C)C1 (stereo not drawn)
inactive: dose: 25.0 mg/kg/injection, schedule: Q04DX002 (ip), vehicle: saline 110 % of control | dose: 50.0 mg/kg/injection, schedule: Q04DX002 (ip), vehicle: saline 103 % of control | dose: 100.0 mg/kg/injection, schedule: Q04DX002 (ip), vehicle: saline 110 % of control and 89 % of control

CCCC1N(C)CCCN1C
inactive: [14] 114 % of control | [15] 102 % of control

Cc1c([N+](=O)[O-])cc(C(C)(C)C)c(OC(=S)N(C)C)c1[N+](=O)[O-]
inactive: [1] 105 % of control | [13] 86 % of control
